Laboratory results from ChEMBL document CHEMBL4507279, “Data for DCP probe BI-9627” (2021).

Assays:
[1] = target: Serine/threonine-protein kinase 16 (Homo sapiens) (UniProt O75716); details: Compound concentration 1000.0 nM
[2] = target: Mitogen-activated protein kinase kinase kinase 15 (Homo sapiens) (UniProt Q6ZN16); details: Compound concentration 1000.0 nM
[3] = target: Serine/threonine-protein kinase PAK 6 (Homo sapiens) (UniProt Q9NQU5); details: Compound concentration 1000.0 nM
[4] = target: Histamine H1 receptor (Homo sapiens) (UniProt P35367); details: Compound concentration 10.0 uM
[5] = target: Glycogen synthase kinase-3 beta (Homo sapiens) (UniProt P49841); details: Compound concentration 1000.0 nM
[6] = target: T1, 5-hydroxytryptamine receptor 3A (Homo sapiens) (UniProt P46098); details: Compound concentration 10.0 uM
T1 sequence (whole entry): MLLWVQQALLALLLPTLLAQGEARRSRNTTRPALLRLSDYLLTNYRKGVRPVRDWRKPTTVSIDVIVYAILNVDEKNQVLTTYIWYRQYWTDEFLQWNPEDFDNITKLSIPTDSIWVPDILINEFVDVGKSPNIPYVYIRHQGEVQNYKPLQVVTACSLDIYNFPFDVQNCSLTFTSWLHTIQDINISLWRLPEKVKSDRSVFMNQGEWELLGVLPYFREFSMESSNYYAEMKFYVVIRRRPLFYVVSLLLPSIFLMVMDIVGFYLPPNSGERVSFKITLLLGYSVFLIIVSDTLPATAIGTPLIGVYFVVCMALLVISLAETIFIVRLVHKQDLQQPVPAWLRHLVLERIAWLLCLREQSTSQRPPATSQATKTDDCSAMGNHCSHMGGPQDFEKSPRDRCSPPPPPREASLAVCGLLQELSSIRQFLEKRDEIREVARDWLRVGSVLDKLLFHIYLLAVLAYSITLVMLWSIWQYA

[7] = target: Hormonally up-regulated neu tumor-associated kinase (Homo sapiens) (UniProt P57058); details: Compound concentration 1000.0 nM
[8] = target: Death-associated protein kinase 1 (Homo sapiens) (UniProt P53355); details: Compound concentration 1000.0 nM
[9] = target: Serine/threonine-protein kinase TAO2 (Homo sapiens) (UniProt Q9UL54); details: Compound concentration 1000.0 nM
[10] = target: Citron Rho-interacting kinase (Homo sapiens) (UniProt O14578); details: Compound concentration 1000.0 nM
[11] = target: Serine/threonine-protein kinase DCLK1 (Homo sapiens) (UniProt O15075); details: Compound concentration 1000.0 nM
[12] = target: Cyclin-dependent kinase 2 (Homo sapiens) (UniProt P24941); details: Compound concentration 1000.0 nM
[13] = target: GABA-A receptor; anion channel (Rattus norvegicus) (UniProt O09028+P15431+P18506+P18508+P19969+P20236+P23574+P23576+P28471+P28473+P30191+P62813+P63079+P63138+Q91ZM7+Q9ES14); details: Compound concentration 10.0 uM
[14] = target: Tyrosine-protein kinase JAK2 (Homo sapiens) (UniProt O60674); details: Compound concentration 1000.0 nM
[15] = target: Mitogen-activated protein kinase kinase kinase kinase 1 (Homo sapiens) (UniProt Q92918); details: Compound concentration 1000.0 nM
[16] = test system: Tyrosine-protein kinase ABL1 (Homo sapiens), P00519 [Q252H]; details: Compound concentration 1000.0 nM
[17] = target: Mitogen-activated protein kinase kinase kinase 2 (Homo sapiens) (UniProt Q9Y2U5); details: Compound concentration 1000.0 nM
[18] = target: Serine/threonine-protein kinase Nek3 (Homo sapiens) (UniProt P51956); details: Compound concentration 1000.0 nM
[19] = target: Cyclin-dependent kinase 3 (Homo sapiens) (UniProt Q00526); details: Compound concentration 1000.0 nM
[20] = target: Serine/threonine-protein kinase ICK (Homo sapiens) (UniProt Q9UPZ9); details: Compound concentration 1000.0 nM
[21] = target: Serine/threonine-protein kinase 25 (Homo sapiens) (UniProt O00506); details: Compound concentration 1000.0 nM
[22] = test system: eIF-2-alpha kinase GCN2 (Homo sapiens), Q9P2K8 [S808G]; details: Compound concentration 1000.0 nM
[23] = target: Non-receptor tyrosine-protein kinase TNK1 (Homo sapiens) (UniProt Q13470); details: Compound concentration 1000.0 nM
[24] = test system: Mast/stem cell growth factor receptor Kit (Homo sapiens), P10721 [L576P]; details: Compound concentration 1000.0 nM
[25] = target: Fibroblast growth factor receptor 1 (Homo sapiens) (UniProt P11362); details: Compound concentration 1000.0 nM
[26] = target: Cyclin-dependent kinase 4 (Homo sapiens) (UniProt P11802); details: Compound concentration 1000.0 nM
[27] = target: Macrophage colony-stimulating factor 1 receptor (Homo sapiens) (UniProt P07333); details: Compound concentration 1000.0 nM
[28] = target: Serine/threonine-protein kinase LATS2 (Homo sapiens) (UniProt Q9NRM7); details: Compound concentration 1000.0 nM
[29] = target: G protein-coupled receptor kinase 3 (Homo sapiens) (UniProt P35626); details: Compound concentration 1000.0 nM
[30] = target: Serine/threonine-protein kinase MARK2 (Homo sapiens) (UniProt Q7KZI7); details: Compound concentration 1000.0 nM
[31] = target: Muscle, skeletal receptor tyrosine-protein kinase (Homo sapiens) (UniProt O15146); details: Compound concentration 1000.0 nM
[32] = test system: Hepatocyte growth factor receptor (Homo sapiens), P08581 [M1250T]; details: Compound concentration 1000.0 nM
[33] = target: Epithelial discoidin domain-containing receptor 1 (Homo sapiens) (UniProt Q08345); details: Compound concentration 1000.0 nM
[34] = target: Non-receptor tyrosine-protein kinase TYK2 (Homo sapiens) (UniProt P29597); details: Compound concentration 1000.0 nM
[35] = target: Serine/threonine-protein kinase pim-2 (Homo sapiens) (UniProt Q9P1W9); details: Compound concentration 1000.0 nM
[36] = target: Serine/threonine-protein kinase Sgk2 (Homo sapiens) (UniProt Q9HBY8); details: Compound concentration 1000.0 nM
[37] = target: Mitogen-activated protein kinase kinase kinase 10 (Homo sapiens) (UniProt Q02779); details: Compound concentration 1000.0 nM
Mitogen-activated protein kinase kinase kinase 10 (Homo sapiens), sequence (Q02779 whole entry, looked up): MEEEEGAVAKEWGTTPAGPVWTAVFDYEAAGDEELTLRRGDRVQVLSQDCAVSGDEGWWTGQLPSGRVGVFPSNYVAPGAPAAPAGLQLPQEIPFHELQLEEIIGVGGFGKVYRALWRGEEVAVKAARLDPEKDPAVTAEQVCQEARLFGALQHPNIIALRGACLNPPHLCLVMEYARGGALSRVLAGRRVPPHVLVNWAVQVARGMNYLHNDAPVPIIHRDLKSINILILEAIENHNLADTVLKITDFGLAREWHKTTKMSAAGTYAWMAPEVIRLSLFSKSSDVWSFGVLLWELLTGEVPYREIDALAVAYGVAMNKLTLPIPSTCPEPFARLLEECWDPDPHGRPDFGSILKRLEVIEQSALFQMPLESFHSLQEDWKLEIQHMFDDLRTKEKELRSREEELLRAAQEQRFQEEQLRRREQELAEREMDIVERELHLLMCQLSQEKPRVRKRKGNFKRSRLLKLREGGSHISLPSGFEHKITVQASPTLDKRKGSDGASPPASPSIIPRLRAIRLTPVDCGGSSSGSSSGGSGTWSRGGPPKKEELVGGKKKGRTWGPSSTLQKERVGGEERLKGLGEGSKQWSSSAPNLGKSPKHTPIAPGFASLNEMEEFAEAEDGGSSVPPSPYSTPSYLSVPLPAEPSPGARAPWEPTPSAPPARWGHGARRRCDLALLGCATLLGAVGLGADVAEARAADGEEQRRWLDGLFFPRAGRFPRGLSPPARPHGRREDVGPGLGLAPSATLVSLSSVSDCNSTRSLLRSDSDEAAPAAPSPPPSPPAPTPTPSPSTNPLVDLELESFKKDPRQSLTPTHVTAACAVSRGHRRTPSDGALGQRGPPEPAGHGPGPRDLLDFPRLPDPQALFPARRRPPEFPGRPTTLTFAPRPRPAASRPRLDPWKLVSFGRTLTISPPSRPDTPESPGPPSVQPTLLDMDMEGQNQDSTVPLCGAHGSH

Hormonally up-regulated neu tumor-associated kinase (Homo sapiens), sequence (P57058 whole entry): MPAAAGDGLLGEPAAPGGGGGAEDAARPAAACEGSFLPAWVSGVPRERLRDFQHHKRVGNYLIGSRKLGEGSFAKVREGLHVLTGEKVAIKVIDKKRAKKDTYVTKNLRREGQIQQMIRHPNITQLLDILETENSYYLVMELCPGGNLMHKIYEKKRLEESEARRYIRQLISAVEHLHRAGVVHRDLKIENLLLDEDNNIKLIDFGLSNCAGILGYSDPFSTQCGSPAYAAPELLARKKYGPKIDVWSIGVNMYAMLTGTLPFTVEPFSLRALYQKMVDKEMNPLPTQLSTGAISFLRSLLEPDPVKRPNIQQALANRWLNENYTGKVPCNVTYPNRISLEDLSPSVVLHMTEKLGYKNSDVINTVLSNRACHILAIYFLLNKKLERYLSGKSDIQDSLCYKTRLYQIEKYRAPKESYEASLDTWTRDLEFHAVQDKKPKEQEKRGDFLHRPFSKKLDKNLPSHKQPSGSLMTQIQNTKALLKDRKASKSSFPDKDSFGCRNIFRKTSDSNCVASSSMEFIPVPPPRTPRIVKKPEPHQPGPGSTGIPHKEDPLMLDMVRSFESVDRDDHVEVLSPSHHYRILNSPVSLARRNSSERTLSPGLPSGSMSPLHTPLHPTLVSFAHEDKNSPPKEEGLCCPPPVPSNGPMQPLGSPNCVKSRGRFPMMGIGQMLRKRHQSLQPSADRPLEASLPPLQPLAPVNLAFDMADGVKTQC
Mast/stem cell growth factor receptor Kit (Homo sapiens), P10721 [L576P], sequence (P10721 whole entry L576P): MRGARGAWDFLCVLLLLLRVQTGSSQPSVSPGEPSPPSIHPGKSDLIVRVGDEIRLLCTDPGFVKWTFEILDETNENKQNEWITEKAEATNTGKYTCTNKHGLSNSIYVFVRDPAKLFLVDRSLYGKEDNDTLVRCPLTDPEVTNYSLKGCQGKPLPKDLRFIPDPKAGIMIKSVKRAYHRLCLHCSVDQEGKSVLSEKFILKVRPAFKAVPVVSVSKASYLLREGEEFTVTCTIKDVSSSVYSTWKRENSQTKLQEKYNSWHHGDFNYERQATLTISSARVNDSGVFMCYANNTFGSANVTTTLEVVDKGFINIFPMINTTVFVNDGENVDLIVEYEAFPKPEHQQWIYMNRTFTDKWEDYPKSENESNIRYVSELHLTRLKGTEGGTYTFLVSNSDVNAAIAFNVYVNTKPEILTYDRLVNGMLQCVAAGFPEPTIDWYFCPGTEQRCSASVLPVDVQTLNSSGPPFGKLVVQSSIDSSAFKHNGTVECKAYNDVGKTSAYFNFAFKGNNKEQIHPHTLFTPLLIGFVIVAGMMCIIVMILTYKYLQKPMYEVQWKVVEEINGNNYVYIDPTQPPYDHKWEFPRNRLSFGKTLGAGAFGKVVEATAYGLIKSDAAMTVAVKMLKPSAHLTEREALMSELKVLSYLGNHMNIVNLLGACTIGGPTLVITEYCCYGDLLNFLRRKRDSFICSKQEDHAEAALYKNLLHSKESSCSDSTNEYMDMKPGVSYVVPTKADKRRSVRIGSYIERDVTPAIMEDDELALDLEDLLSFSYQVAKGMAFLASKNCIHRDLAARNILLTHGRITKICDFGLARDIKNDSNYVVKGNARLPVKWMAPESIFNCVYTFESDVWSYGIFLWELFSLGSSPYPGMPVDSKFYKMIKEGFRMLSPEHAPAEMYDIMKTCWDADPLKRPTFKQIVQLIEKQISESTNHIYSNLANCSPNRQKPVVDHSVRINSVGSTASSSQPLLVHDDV
Glycogen synthase kinase-3 beta (Homo sapiens), sequence (P49841 whole entry, looked up): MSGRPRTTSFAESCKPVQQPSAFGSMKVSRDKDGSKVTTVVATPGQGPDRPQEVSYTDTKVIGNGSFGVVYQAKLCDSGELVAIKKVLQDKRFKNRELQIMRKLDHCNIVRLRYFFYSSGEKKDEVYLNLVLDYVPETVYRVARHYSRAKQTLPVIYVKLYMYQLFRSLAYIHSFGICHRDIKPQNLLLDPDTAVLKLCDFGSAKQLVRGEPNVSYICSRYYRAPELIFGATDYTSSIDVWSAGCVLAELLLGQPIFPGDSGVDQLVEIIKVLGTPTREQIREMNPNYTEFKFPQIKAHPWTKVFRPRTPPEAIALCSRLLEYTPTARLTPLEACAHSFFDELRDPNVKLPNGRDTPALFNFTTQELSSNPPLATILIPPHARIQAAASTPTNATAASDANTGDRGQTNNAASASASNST
Histamine H1 receptor (Homo sapiens), sequence (P35367 whole entry): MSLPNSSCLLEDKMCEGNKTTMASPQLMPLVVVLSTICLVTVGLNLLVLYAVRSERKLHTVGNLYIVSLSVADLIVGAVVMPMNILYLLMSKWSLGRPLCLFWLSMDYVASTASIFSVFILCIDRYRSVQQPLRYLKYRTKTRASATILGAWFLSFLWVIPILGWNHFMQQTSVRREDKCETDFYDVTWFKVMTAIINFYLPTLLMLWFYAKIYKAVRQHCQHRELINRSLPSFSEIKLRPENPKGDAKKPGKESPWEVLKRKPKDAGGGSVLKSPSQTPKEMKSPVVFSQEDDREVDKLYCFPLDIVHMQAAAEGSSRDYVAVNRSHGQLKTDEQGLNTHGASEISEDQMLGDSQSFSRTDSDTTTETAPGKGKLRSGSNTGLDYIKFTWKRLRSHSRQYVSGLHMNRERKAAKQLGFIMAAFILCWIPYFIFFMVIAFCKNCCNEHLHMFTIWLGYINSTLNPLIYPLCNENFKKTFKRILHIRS
Death-associated protein kinase 1 (Homo sapiens), sequence (P53355 whole entry, looked up): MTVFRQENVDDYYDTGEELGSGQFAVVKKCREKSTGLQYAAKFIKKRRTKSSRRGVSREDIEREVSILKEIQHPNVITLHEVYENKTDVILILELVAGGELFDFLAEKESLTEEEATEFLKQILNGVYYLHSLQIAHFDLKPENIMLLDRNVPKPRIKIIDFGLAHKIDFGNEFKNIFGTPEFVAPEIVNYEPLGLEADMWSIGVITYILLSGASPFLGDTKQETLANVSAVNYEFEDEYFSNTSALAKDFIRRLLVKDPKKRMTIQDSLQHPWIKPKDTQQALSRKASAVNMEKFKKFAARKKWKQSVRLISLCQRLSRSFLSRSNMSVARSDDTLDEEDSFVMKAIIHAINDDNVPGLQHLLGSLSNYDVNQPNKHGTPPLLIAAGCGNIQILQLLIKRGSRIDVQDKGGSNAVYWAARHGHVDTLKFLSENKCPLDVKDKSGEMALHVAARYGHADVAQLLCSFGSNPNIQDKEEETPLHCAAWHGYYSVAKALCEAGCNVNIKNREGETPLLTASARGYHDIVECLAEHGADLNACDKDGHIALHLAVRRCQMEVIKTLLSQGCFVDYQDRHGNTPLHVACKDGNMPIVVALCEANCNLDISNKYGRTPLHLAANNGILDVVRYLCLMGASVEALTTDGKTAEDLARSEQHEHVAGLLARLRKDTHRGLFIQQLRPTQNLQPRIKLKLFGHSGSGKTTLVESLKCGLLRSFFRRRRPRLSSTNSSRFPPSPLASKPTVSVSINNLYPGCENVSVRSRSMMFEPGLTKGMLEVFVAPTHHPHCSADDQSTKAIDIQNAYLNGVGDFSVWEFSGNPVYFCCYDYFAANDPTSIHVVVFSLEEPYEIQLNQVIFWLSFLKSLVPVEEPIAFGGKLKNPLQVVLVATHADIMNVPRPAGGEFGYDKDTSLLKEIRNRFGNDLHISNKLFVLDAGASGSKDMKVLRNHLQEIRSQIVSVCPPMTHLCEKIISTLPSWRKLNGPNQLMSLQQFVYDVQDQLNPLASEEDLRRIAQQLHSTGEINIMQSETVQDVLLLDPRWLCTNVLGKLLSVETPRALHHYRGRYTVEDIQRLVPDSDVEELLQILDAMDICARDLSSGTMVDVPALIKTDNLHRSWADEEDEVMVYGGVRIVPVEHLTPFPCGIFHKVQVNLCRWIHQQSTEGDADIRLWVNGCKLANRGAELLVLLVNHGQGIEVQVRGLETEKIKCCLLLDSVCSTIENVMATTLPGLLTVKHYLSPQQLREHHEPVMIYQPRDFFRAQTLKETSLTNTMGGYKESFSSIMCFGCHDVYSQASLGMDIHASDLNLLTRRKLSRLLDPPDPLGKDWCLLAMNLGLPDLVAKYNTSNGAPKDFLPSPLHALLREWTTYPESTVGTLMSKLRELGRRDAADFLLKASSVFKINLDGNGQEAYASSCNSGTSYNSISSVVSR

CC(=O)N1CCC(c2ccc(C(=O)NC3=NCCN3)cc2C(F)(F)F)CC1 [BI 0054]
inactive: residual activity [1] 100% | residual activity [2] 93% | residual activity [3] 100% | inhibition [4] -0.162% | residual activity [5] 88% | inhibition [6] -4.49% | residual activity [7] 100% | residual activity [8] 100% | residual activity [9] 100% | residual activity [10] 100% | residual activity [11] 89% | residual activity [12] 100% | inhibition [13] 17% | residual activity [14] 100% | residual activity [15] 100% | residual activity [16] 86% | residual activity [17] 100% | residual activity [18] 63% | residual activity [19] 100% | residual activity [20] 88% | residual activity [21] 100% | residual activity [22] 52% | residual activity [23] 84% | residual activity [24] 95% | residual activity [25] 100% | residual activity [26] 94% | residual activity [27] 94% | residual activity [28] 91% | residual activity [29] 76% | residual activity [30] 100% | residual activity [31] 90% | residual activity [32] 84% | residual activity [33] 100% | residual activity [34] 100% | residual activity [35] 100% | residual activity [36] 100% | residual activity [37] 100%

CC(=O)N1CCC(c2ccc(C(=O)NC(=N)N)cc2C(F)(F)F)CC1 [BI 9627]
inactive: residual activity [1] 100% | residual activity [2] 100% | residual activity [3] 100% | inhibition [4] 7.6% | residual activity [5] 85% | inhibition [6] -6.68% | residual activity [7] 100% | residual activity [8] 100% | residual activity [9] 94% | residual activity [10] 98% | residual activity [11] 100% | residual activity [12] 100% | inhibition [13] 14.6% | residual activity [14] 100% | residual activity [15] 100% | residual activity [16] 100% | residual activity [17] 100% | residual activity [18] 79% | residual activity [19] 100% | residual activity [20] 94% | residual activity [21] 100% | residual activity [22] 73% | residual activity [23] 89% | residual activity [24] 92% | residual activity [25] 100% | residual activity [26] 97% | residual activity [27] 85% | residual activity [28] 100% | residual activity [29] 92% | residual activity [30] 100% | residual activity [31] 100% | residual activity [32] 100% | residual activity [33] 83% | residual activity [34] 100% | residual activity [35] 100% | residual activity [36] 100% | residual activity [37] 95%
